Assay results taken from paper PMC11836537, “An isofagomine analogue with an amidine group in the 1,6-position” (Royal Society Open Science, 2025).
Where two headings read alike, the source gives them in different places.

Key:
[1] = cited from earlier work
[2] = target: β-glucosidase; settings: cited from earlier work
[3] = target: T1, α-mannosidase (Canavalia ensiformis, UniProt C0HJB3); settings: α-mannosidase from jack beans, pH 5.6; cited from earlier work
T1 sequence (C0HJB3 1-981): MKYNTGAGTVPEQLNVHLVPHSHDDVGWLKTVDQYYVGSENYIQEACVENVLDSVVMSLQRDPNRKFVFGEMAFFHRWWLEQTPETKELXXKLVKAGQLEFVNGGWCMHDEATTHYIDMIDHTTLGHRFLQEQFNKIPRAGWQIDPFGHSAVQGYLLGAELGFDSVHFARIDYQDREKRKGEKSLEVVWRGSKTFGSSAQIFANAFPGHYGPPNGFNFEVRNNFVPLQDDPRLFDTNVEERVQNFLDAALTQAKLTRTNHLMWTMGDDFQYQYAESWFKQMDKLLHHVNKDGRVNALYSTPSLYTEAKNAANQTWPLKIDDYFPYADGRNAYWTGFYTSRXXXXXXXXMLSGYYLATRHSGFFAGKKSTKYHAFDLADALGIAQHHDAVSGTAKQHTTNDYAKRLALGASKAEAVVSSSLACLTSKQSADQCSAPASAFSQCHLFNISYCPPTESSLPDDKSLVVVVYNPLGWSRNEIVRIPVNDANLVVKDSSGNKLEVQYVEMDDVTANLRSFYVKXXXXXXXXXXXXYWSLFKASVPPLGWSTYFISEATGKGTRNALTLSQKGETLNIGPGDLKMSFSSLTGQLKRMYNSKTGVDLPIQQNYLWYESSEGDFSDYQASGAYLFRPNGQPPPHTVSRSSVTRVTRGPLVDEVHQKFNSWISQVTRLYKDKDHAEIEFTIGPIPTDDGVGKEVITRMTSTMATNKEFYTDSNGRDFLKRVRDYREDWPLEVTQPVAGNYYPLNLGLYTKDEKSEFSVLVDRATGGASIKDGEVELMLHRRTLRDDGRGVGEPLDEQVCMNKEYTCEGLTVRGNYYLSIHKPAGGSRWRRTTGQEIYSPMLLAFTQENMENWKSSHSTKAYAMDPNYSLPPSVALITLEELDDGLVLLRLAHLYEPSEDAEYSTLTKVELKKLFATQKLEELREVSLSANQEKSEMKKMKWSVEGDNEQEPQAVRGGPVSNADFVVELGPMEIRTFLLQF

[4] = target: T2, β-galactosidase (Aspergillus oryzae, UniProt Q2UCU3); settings: β-galactosidase from Aspergillus oryzae, pH 6.8; cited from earlier work
[5] = target: T3, α-galactosidase (Coffea arabica, UniProt Q42656); set-up: key to inhibition: NI = no inhibition; settings: α-galactosidase from green coffee beans, pH 6.8; cited from earlier work
[6] = target: T3, α-galactosidase; experiment: glycosidase inhibition, α-galactosidase; format: biochemical
Source text: (§1) The glycosidase inhibitory activities (IC50 (µM)) of amidines 5 and 6 on a panel of six glycosidases are presented in table 1 and compared with structurally related isofagomine (3) and amidine 4.

[7] = target: β-galactosidase (Escherichia coli, UniProt P00722); experiment: glycosidase inhibition, β-galactosidase (Escherichia coli); format: biochemical
Source text: as §1

[8] = system: all tested enzymes (panel of six glycosidases); experiment: glycosidase inhibition, whole panel of six glycosidases; format: biochemical; settings: for glycosidase inhibition in words: all enzymes in the panel
Source text: as §1

[9] = pKa determination by NMR titration in D2O; format: physicochemical; settings: for pH* at which degradation started: during NMR titration in D2O; for pKa: D2O
Source text: The pKa values for azasugars have been determined by NMR spectroscopy in other studies. This methodology was also applied in this study to determine the pKa value of 6. […] The sigmoidal curve is missing points at high pH* values (greater than 11) because 6 started degrading at roughly pH* 10.5. Recording of both a ^1H NMR and ^13C HSQC spectra at each titration point allowed us to track the changes in chemical shifts at pH levels higher than where the degradation initially started. The pKa of amidine 5 was determined at even lower accuracy than for 6, because it started degrading at roughly pH* 9.4, where there is no indication of 5 being deprotonated.

[10] = target: T2, β-galactosidase; experiment: glycosidase inhibition, β-galactosidase (Aspergillus oryzae); format: biochemical
Source text: as §1

[11] = target: β-glucosidase; experiment: glycosidase inhibition, β-glucosidase; format: biochemical; settings: β-glucosidase from almonds, pH 6.8
Source text: as §1

[12] = target: T1, α-mannosidase; experiment: glycosidase inhibition, α-mannosidase; format: biochemical; settings: α-mannosidase from jack beans, pH 5.6
Source text: as §1

[13] = target: α-glucosidase; experiment: glycosidase inhibition, α-glucosidase; format: biochemical; settings: α-glucosidase from Saccharomyces cerevisiae, pH 6.8
Source text: as §1

[14] = β-glucosidase from almonds, pH 6.8

T3 sequence (Q42656 16-378): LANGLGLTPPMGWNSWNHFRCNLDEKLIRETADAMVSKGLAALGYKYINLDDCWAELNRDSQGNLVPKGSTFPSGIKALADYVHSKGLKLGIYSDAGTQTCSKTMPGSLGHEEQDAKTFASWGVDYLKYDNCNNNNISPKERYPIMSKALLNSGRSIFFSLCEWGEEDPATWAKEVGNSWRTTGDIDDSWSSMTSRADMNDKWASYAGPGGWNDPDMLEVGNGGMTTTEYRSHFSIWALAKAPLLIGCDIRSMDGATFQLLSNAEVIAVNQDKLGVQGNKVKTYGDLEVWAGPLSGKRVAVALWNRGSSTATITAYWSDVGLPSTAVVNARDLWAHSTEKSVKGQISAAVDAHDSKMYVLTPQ
T2 sequence (Q2UCU3 19-1005): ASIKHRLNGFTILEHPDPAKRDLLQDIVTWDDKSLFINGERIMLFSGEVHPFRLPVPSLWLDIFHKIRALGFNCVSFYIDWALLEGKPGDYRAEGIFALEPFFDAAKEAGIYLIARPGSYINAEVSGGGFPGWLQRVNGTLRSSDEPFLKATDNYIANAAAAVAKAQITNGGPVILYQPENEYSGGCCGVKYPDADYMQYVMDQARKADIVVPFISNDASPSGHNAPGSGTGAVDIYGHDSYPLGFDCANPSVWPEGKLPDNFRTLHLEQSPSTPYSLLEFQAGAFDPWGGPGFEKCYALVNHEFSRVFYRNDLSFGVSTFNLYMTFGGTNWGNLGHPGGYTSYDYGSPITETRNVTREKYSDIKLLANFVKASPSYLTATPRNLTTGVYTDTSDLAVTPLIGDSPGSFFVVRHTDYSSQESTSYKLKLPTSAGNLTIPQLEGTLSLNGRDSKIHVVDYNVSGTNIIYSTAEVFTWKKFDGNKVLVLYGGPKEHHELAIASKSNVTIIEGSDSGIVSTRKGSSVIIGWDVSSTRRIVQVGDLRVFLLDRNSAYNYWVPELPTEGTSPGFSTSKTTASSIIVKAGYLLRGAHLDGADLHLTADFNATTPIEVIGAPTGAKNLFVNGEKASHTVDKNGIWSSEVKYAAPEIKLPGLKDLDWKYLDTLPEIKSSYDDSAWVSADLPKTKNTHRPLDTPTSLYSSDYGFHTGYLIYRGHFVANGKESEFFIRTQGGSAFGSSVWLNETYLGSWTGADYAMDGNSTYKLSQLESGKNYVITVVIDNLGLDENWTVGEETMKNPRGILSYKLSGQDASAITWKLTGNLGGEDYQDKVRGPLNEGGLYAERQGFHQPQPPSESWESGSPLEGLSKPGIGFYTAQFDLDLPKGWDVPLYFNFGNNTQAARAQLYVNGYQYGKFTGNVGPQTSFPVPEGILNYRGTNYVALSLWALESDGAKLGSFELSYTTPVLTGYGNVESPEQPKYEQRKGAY
Chain of β-galactosidase (Escherichia coli, UniProt P00722) (P00722 2-1024 limits assumed): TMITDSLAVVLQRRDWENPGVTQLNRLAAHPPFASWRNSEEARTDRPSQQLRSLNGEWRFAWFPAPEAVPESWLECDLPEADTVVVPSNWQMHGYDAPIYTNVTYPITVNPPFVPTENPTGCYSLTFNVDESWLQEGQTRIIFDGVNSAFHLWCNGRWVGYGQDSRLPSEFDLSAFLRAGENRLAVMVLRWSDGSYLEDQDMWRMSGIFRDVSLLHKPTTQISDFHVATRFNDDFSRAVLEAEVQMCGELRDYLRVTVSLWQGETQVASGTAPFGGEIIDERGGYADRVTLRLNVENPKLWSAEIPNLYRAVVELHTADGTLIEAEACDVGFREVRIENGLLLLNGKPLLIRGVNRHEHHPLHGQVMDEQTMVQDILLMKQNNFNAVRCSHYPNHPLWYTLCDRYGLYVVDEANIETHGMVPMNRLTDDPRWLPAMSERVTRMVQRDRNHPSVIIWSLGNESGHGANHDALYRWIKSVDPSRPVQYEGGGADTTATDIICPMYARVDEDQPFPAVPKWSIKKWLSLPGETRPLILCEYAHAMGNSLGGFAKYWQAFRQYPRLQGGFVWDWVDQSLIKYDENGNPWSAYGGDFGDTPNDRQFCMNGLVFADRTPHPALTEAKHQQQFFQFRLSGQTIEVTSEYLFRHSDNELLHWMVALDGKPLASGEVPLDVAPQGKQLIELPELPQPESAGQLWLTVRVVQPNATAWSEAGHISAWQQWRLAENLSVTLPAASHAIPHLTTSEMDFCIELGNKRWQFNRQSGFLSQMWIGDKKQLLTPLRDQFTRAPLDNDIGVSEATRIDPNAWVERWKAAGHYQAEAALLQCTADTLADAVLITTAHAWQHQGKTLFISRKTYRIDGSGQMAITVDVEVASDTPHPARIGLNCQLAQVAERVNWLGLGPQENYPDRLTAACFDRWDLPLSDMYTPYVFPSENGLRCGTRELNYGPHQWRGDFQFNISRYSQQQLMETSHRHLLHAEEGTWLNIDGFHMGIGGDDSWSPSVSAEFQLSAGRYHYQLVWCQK

NC1=N[C@H](CO)[C@@H](O)[C@H](O)[C@H]1O [compound 2, ᴅ-glucoamidine]
pKa [1]: ≥ 10.5 | fold stronger base than 1 ([1]; compared with 1-deoxynojirimycin (1)): roughly 7900 fold

OC[C@H]1CNC[C@@H](O)[C@@H]1O [compound 3, isofagomine]
Ki ([2]; almond β-glucosidase): 0.11 µM | Ki [2, 14]: 0.11 µM | IC50 [3]: 250 µM | IC50 [4]: 270 µM | IC50 [5]: > 2000 µM

N=C1NC[C@H](CO)[C@@H](O)[C@@H]1O [compound 4]
Ki [2, 14]: 450 µM | Ki [3]: 0.75 µM | Ki [4]: 17400 µM | inhibition [5]: NI^g,i

N=C1NC[C@@H](O)[C@H](O)[C@H]1CO [compound 5]
IC50 ([6]; α-galactosidase from green coffee beans, pH 6.8, read-out: IC50): > 50 µM | IC50 ([7]; β-galactosidase from Escherichia coli, pH 6.8, read-out: IC50): > 50 µM | glycosidase inhibition in words [8]: very poor inhibitor | IC50 ([8]; all tested enzymes, read-out: IC50 against all tested enzymes): > 50 µM | pH* at which degradation started [9]: ~9.4 | IC50 ([10]; β-galactosidase from Aspergillus oryzae, pH 6.8, read-out: IC50): > 50 µM | IC50 [11]: > 50 µM | IC50 [12]: > 50 µM | IC50 [13]: > 50 µM

N=C1[C@H](CO)[C@@H](O)[C@H](O)CN1Cc1ccccc1 [compound 6]
IC50 [6]: > 50 µM | IC50 [7]: > 50 µM | glycosidase inhibition in words [8]: very weak inhibitor | pKa ([9]; inflection point of 2-Ha chemical shift versus pH* (pH measured in D2O), read-out: pKa*): > 11 | pKa ([9]; pKa* corrected with a correction factor, read-out: pKa (corrected)): > 10.6 | pH* at which degradation started [9]: ~10.5 | IC50 [10]: > 50 µM | IC50 [11]: > 50 µM | IC50 [12]: > 50 µM | IC50 [13]: > 50 µM
